Data on 4 molecules can be found in ChEMBL document CHEMBL1157160, “Antioxidant and cytotoxic activities of canadine: biological effects and structural aspects” (Bioorg Med Chem, 2008).

Molecules are shown by their SMILES. ≈ marks a conversion by molar mass, not a printed value. A value given as a limit tells only on which side of the number the result lay.

Series [1] has as its system Hepatocyte. Kind of series: Cytotoxicity against Sprague-Dawley rat primary hepatocytes after 24 hrs by MTT assay. The series is classed as cell-based. Background: Tetrazolium dyes change colour on reduction, which living cells bring about.
In series [2] the test system is HepG2. Kind of series: Cytotoxicity against human HepG2 cells after 24 hrs by MTT assay. The series is classed as functional, cell-based.
The test system of series [3] is HeLa. Put plainly: Cytotoxicity against human HeLa cells after 24 hrs by MTT assay. It counts as functional, cell-based.
The subject of series [4] is Hepatocyte. Put plainly: Cytotoxicity against rat primary hepatocytes at 300 ug/ml after 24 hrs by MTT assay. The series is classed as cell-based.
The test system of series [5] is HepG2. Kind of series: Cytotoxicity against human HepG2 cells at 300 ug/ml after 24 hrs by MTT assay. It counts as functional, cell-based.
Series [6] concerns HeLa. Kind of series: Cytotoxicity against human HeLa cells at 300 ug/ml after 24 hrs by MTT assay. It counts as functional, cell-based.
The test system of series [7] is Hepatocyte. Kind of series: Antioxidant effect in Sprague-Dawley rat primary hepatocytes assessed as decrease in tert-butyl hydroperoxide-induced malondialdehyde accumulation administered 50 ug/ml for 7 hrs followed by combined exposure of tert-butyl hydroperoxide and drug for 12 hrs. It counts as functional. Further details: scale not given: the % may be the effect or the level left.

Series [8] relates to Hepatocyte. Put plainly: Antioxidant effect in Sprague-Dawley rat primary hepatocytes assessed as decrease in tert-butyl hydroperoxide-induced malondialdehyde accumulation administered 100 ug/ml for 7 hrs followed by combined exposure of tert-butyl hydroperoxide and drug for 12 hrs. It counts as functional. Details: scale not given: the % may be the effect or the level left.

For series [9], the system named is Hepatocyte. Put plainly: Antioxidant effect in Sprague-Dawley rat primary hepatocytes assessed as prevention of tert-butyl hydroperoxide-induced reduction in glutathione content administered 50 ug/ml for 7 hrs followed by combined exposure of tert-butyl hydroperoxide and drug for 12 hrs. The series is classed as functional. Further details: scale not given: the % may be the effect or the level left.

The test system of series [10] is Hepatocyte. Put plainly: Antioxidant effect in Sprague-Dawley rat primary hepatocytes assessed as prevention of tert-butyl hydroperoxide-induced reduction in glutathione content administered 100 ug/ml for 7 hrs followed by combined exposure of tert-butyl hydroperoxide and drug for 12 hrs. It counts as functional. Details: scale not given: the % may be the effect or the level left.

Setting [11] is: Homo sapiens, HepG2, 24 h, read-out: IC50.
The mark [12] stands for this setting: Homo sapiens, HeLa, 24 h, read-out: IC50.

What is called IC50 is the concentration that inhibits the measured activity by half. Regarding `c1ccc2c(c1)C[C@H]1NCCc3cc4c(c-2c31)OCO4` [ANONAINE], the IC50 in the series on Hepatocyte [1] stood at 70.3 µg/mL (≈ 265 µM); in the series on HepG2 [2] (setting [11]) it was 33.5 µg/mL (≈ 126 µM); in the series on HeLa [3] (setting [12]), 24.8 µg/mL (≈ 93.5 µM).

Turning to `COc1cc2c3cc1Oc1c(O)c(OC)cc4c1[C@H](Cc1ccc(OC)c(c1)-c1cc(ccc1O)C[C@H]3N(C)CC2)N(C)CC4` [ANTIOQUINE], the IC50 was 4.06 µg/mL (≈ 6.67 µM) in the series on Hepatocyte [1], 460 µg/mL (≈ 756 µM) in the series with HepG2 [2] (setting [11]) and 548 µg/mL (≈ 901 µM) with HeLa [3] (setting [12]).

Regarding `COc1ccc2cc3[n+](cc2c1OC)CCc1cc2c(cc1-3)OCO2.[Cl-]` [BERBERINE CHLORIDE], the values for the IC50 in the series on Hepatocyte [1], in the series on HepG2 [2] (hepg2) and with HeLa [3] (hela) were 26.5 µg/mL, 146 µg/mL and 138 µg/mL, respectively.

For the molecule `COc1ccc2c(c1OC)CN1CCc3cc4c(cc3[C@@H]1C2)OCO4` [CANADINE], the Activity entry is “Non-toxic” with Hepatocyte [4]; “Not toxic” in the series with HepG2 [5]; “Not toxic” in the series on HeLa [6]; more than 80% with Hepatocyte [7]; more than 80% in the series on Hepatocyte [8]; more than 95% with Hepatocyte [9]. Also, the Activity in the series on Hepatocyte [10] is recorded as more than 95%.
